Data from ChEMBL document CHEMBL1201862, “PubChem BioAssay data set” (2004).
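48-hour exposure; five concentrations; linearly interpolated endpoints. GI50: concentration for 50% inhibition of growth.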 The source made the active and inactive calls. No stated cut-off is given here; in the data, active = GI50 up to about 1.1 µM and inactive = higher.

Experiments:
Experiment in all cases: growth of human tumour cells (NCI), 48 h
786-0 = system: 786-0
A498 = system: A498
A549 = system: A549
ACHN = system: ACHN
BT-549 = system: BT-549
CCRF-CEM = system: CCRF-CEM
COLO 205 = system: COLO 205
DU-145 = system: DU-145
EKVX = system: EKVX
HCC 2998 = system: HCC 2998
HCT-116 = system: HCT-116
HCT-15 = system: HCT-15
HL-60 = system: HL-60
HOP-62 = system: HOP-62
HOP-92 = system: HOP-92
HT-29 = system: HT-29
Hs-578T = system: Hs-578T
IGROV-1 = system: IGROV-1
K562 = system: K562
KM12 = system: KM12
LOX IMVI = system: LOX IMVI
M14 = system: M14
MCF7 = system: MCF7
MDA-MB-231 = system: MDA-MB-231
MDA-MB-435 = system: MDA-MB-435
MDA-N = system: MDA-N
NCI-H226 = system: NCI-H226
NCI-H23 = system: NCI-H23
NCI-H460 = system: NCI-H460
NCI-H522 = system: NCI-H522
NCI/ADR-RES = system: NCI/ADR-RES
OVCAR-3 = system: OVCAR-3
OVCAR-4 = system: OVCAR-4
OVCAR-5 = system: OVCAR-5
OVCAR-8 = system: OVCAR-8
PC-3 = system: PC-3
RPMI-8226 = system: RPMI-8226
RXF 393 = system: RXF 393
SF-268 = system: SF-268
SF-295 = system: SF-295
SF-539 = system: SF-539
SK-MEL-28 = system: SK-MEL-28
SK-MEL-2 = system: SK-MEL-2
SK-MEL-5 = system: SK-MEL-5
SN12C = system: SN12C
SNB-19 = system: SNB-19
SR = system: SR
SW-620 = system: SW-620
T47D = system: T47D
TK-10 = system: TK-10
U-251 = system: U-251
UACC-257 = system: UACC-257
UACC-62 = system: UACC-62
UO-31 = system: UO-31
CAKI-1 = system: CAKI-1
MOLT-4 = system: MOLT-4
Malme-3M = system: Malme-3M
SK-OV-3 = system: SK-OV-3
SNB-75 = system: SNB-75

Nc1ncnc2oc(-c3cccs3)nc12 was tested, and the GI50 (786-0) was > 100 µM (inactive), the GI50 (A498) was > 100 µM (inactive) and the GI50 (A549) was > 100 µM (inactive). The GI50 (ACHN) was > 100 µM (inactive), the GI50 (BT-549) was > 100 µM (inactive) and the GI50 (CCRF-CEM) was > 100 µM (inactive). The GI50 (COLO 205) was > 100 µM (inactive), the GI50 (DU-145) was > 100 µM (inactive) and the GI50 (EKVX) was 37.5 µM (inactive). For the same molecule, the GI50 (HCC 2998) was > 100 µM (inactive), the GI50 (HCT-116) was > 100 µM (inactive) and the GI50 (HCT-15) was greater than 100 µM. For the same molecule, the GI50 (HL-60) was > 100 µM (inactive), the GI50 (HOP-62) was > 100 µM (inactive) and the GI50 (HOP-92) was > 100 µM (inactive). The GI50 (HT-29) was 83.4 µM (inactive), the GI50 (Hs-578T) was > 100 µM (inactive) and the GI50 (IGROV-1) was > 100 µM (inactive). For the same molecule, the GI50 (K562) was > 100 µM (inactive), the GI50 (KM12) was > 100 µM (inactive) and the GI50 (LOX IMVI) was > 100 µM (inactive). For the same molecule, the GI50 (M14) was > 100 µM (inactive), the GI50 (MCF7) was > 100 µM (inactive) and the GI50 (MDA-MB-231) was > 100 µM (inactive). The GI50 (MDA-MB-435) was > 100 µM (inactive), the GI50 (MDA-N) was > 100 µM (inactive) and the GI50 (NCI-H226) was > 100 µM (inactive). The GI50 (NCI-H23) was > 100 µM (inactive), the GI50 (NCI-H460) was > 100 µM (inactive) and the GI50 (NCI-H522) was > 100 µM (inactive). The GI50 (NCI/ADR-RES) was > 100 µM (inactive), the GI50 (OVCAR-3) was > 100 µM (inactive) and the GI50 (OVCAR-4) was > 100 µM (inactive). The GI50 (OVCAR-5) was > 100 µM (inactive), the GI50 (OVCAR-8) was > 100 µM (inactive) and the GI50 (PC-3) was > 100 µM (inactive). For the same molecule, the GI50 (RPMI-8226) was > 100 µM (inactive), the GI50 (RXF 393) was > 100 µM (inactive) and the GI50 (SF-268) was > 100 µM (inactive). The GI50 (SF-295) was > 100 µM (inactive), the GI50 (SF-539) was > 100 µM (inactive) and the GI50 (SK-MEL-28) was > 100 µM (inactive). The GI50 (SK-MEL-2) was > 100 µM (inactive), the GI50 (SK-MEL-5) was > 100 µM (inactive) and the GI50 (SN12C) was > 100 µM (inactive). The GI50 (SNB-19) was > 100 µM (inactive), the GI50 (SR) was > 100 µM (inactive) and the GI50 (SW-620) was > 100 µM (inactive). For the same molecule, the GI50 (T47D) was > 100 µM (inactive), the GI50 (TK-10) was > 100 µM (inactive) and the GI50 (U-251) was > 100 µM (inactive). For the same molecule, the GI50 (UACC-257) was > 100 µM (inactive), the GI50 (UACC-62) was 66.1 µM (inactive) and the GI50 (UO-31) was > 100 µM (inactive).

Cc1ccc(-c2cc(N)n(-c3nc4c([nH]3)c(=O)n(C)c(=O)n4C)n2)cc1 was tested, and the GI50 (786-0) was 2.08 µM (inactive), the GI50 (A498) was 4.86 µM (inactive) and the GI50 (A549) was 4.68 µM (inactive). The GI50 (ACHN) was 1.92 µM (inactive), the GI50 (BT-549) was 6.95 µM (inactive) and the GI50 (CAKI-1) was 778 nM (active). For the same molecule, the GI50 (CCRF-CEM) was 2.64 µM (inactive), the GI50 (COLO 205) was 3.62 µM (inactive) and the GI50 (DU-145) was 6.35 µM (inactive). The GI50 (EKVX) was 3.09 µM (inactive), the GI50 (HCC 2998) was 7.67 µM (inactive) and the GI50 (HCT-116) was 2.69 µM (inactive). For the same molecule, the GI50 (HCT-15) was 0.47 µM, the GI50 (HL-60) was 5.04 µM (inactive) and the GI50 (HOP-62) was 3.28 µM (inactive). The GI50 (HOP-92) was 12.8 µM (inactive), the GI50 (HT-29) was 4.53 µM (inactive) and the GI50 (Hs-578T) was 23 µM (inactive). The GI50 (IGROV-1) was 2.2 µM (inactive), the GI50 (K562) was 4.03 µM (inactive) and the GI50 (KM12) was 4.88 µM (inactive). For the same molecule, the GI50 (M14) was 4.32 µM (inactive), the GI50 (MCF7) was 6.78 µM (inactive) and the GI50 (MDA-MB-231) was 8.97 µM (inactive). For the same molecule, the GI50 (MDA-MB-435) was 7.73 µM (inactive), the GI50 (MDA-N) was 5.98 µM (inactive) and the GI50 (MOLT-4) was 2.06 µM (inactive). For the same molecule, the GI50 (Malme-3M) was 3.86 µM (inactive), the GI50 (NCI-H226) was 6.71 µM (inactive) and the GI50 (NCI-H23) was 8.95 µM (inactive). For the same molecule, the GI50 (NCI-H460) was 1.71 µM (inactive), the GI50 (NCI-H522) was 29 µM (inactive) and the GI50 (NCI/ADR-RES) was 1.55 µM (inactive). The GI50 (OVCAR-3) was 4.55 µM (inactive), the GI50 (OVCAR-4) was 4.01 µM (inactive) and the GI50 (OVCAR-5) was 8.05 µM (inactive). For the same molecule, the GI50 (OVCAR-8) was 3.37 µM (inactive), the GI50 (PC-3) was 16.3 µM (inactive) and the GI50 (RPMI-8226) was 6.81 µM (inactive). For the same molecule, the GI50 (RXF 393) was 17.6 µM (inactive), the GI50 (SF-268) was 3.59 µM (inactive) and the GI50 (SF-295) was 2.69 µM (inactive). For the same molecule, the GI50 (SF-539) was 4.24 µM (inactive), the GI50 (SK-MEL-28) was 6.14 µM (inactive) and the GI50 (SK-MEL-2) was 6.64 µM (inactive). For the same molecule, the GI50 (SK-MEL-5) was 3.36 µM (inactive), the GI50 (SK-OV-3) was 3.3 µM (inactive) and the GI50 (SN12C) was 5.32 µM (inactive). The GI50 (SNB-19) was 8.55 µM (inactive), the GI50 (SR) was 2.43 µM (inactive) and the GI50 (T47D) was 4.76 µM (inactive). The GI50 (TK-10) was 9.84 µM (inactive), the GI50 (U-251) was 5.36 µM (inactive) and the GI50 (UACC-257) was 15.3 µM (inactive). For the same molecule, the GI50 (UACC-62) was 5.37 µM (inactive) and the GI50 (UO-31) was 2.78 µM (inactive).

For C=C1CC(C)(COc2cc(=O)oc3ccccc23)OC1=O (stereo not drawn), the GI50 (786-0) was 2.84 µM (inactive), the GI50 (A498) was 2.91 µM (inactive) and the GI50 (A549) was 14 µM (inactive). The GI50 (ACHN) was 5.21 µM (inactive), the GI50 (BT-549) was 1.73 µM (inactive) and the GI50 (CAKI-1) was 2220 nM (inactive). The GI50 (CCRF-CEM) was 1.86 µM (inactive), the GI50 (COLO 205) was 2.03 µM (inactive) and the GI50 (DU-145) was 6.97 µM (inactive). For the same molecule, the GI50 (EKVX) was 12.3 µM (inactive), the GI50 (HCC 2998) was 25.2 µM (inactive) and the GI50 (HCT-116) was 2.71 µM (inactive). For the same molecule, the GI50 (HCT-15) was 3.43 µM, the GI50 (HL-60) was 1.17 µM (inactive) and the GI50 (HOP-62) was 20.2 µM (inactive). The GI50 (HOP-92) was 1.2 µM (inactive), the GI50 (HT-29) was 3.82 µM (inactive) and the GI50 (Hs-578T) was 7.74 µM (inactive). For the same molecule, the GI50 (IGROV-1) was 3.03 µM (inactive), the GI50 (K562) was 2 µM (inactive) and the GI50 (KM12) was 8.02 µM (inactive). For the same molecule, the GI50 (LOX IMVI) was 2.56 µM (inactive), the GI50 (M14) was 1.42 µM (inactive) and the GI50 (MCF7) was 1.74 µM (inactive). The GI50 (MDA-MB-231) was 7.38 µM (inactive), the GI50 (MDA-MB-435) was 5.53 µM (inactive) and the GI50 (MDA-N) was 4.13 µM (inactive). For the same molecule, the GI50 (MOLT-4) was 1.94 µM (inactive), the GI50 (Malme-3M) was 2.04 µM (inactive) and the GI50 (NCI-H226) was 10.3 µM (inactive). The GI50 (NCI-H23) was 3.87 µM (inactive), the GI50 (NCI-H460) was 11.1 µM (inactive) and the GI50 (NCI-H522) was 1.8 µM (inactive). The GI50 (NCI/ADR-RES) was 3.35 µM (inactive), the GI50 (OVCAR-3) was 3.96 µM (inactive) and the GI50 (OVCAR-4) was 3.87 µM (inactive). For the same molecule, the GI50 (OVCAR-5) was 7.78 µM (inactive), the GI50 (OVCAR-8) was 5.21 µM (inactive) and the GI50 (PC-3) was 4.11 µM (inactive). The GI50 (RPMI-8226) was 0.637 µM (active), the GI50 (SF-268) was 14.9 µM (inactive) and the GI50 (SF-295) was 12.7 µM (inactive). The GI50 (SF-539) was 3.96 µM (inactive), the GI50 (SK-MEL-28) was 3.05 µM (inactive) and the GI50 (SK-MEL-2) was 2.51 µM (inactive). For the same molecule, the GI50 (SK-MEL-5) was 5.33 µM (inactive), the GI50 (SK-OV-3) was 10.6 µM (inactive) and the GI50 (SN12C) was 8.3 µM (inactive). The GI50 (SNB-19) was 15.8 µM (inactive), the GI50 (SNB-75) was 8.07 µM (inactive) and the GI50 (SR) was 2.88 µM (inactive). The GI50 (SW-620) was 2.57 µM (inactive), the GI50 (T47D) was 2.48 µM (inactive) and the GI50 (TK-10) was 1.77 µM (inactive). For the same molecule, the GI50 (U-251) was 14.3 µM (inactive), the GI50 (UACC-257) was 1.87 µM (inactive) and the GI50 (UACC-62) was 2.48 µM (inactive). For the same molecule, the GI50 (UO-31) was 12.1 µM (inactive).
